The subject of test [1] is PB1X-9B. As to the kind of experiment: Growth on peptides as amino acid source, peptide transport mutant. Particulars: PBIX-9B; 80 μM peptide in SC medium, 30° C., 72 hrs. Type of test: cell-based, Saccharomyces cerevisiae. As for the experimental part: (§1) In addition, untransformed PB1X-9B, PB1X-9B transformed with plasmid pJP9 encoding the above-described yeast peptide transport gene, PB1X-2AΔ and PB1X-2A, the ptr2^+ parental strain to PB1X-2AΔ strain, were also assayed. Each strain was grown overnight in SC media plus uracil (non-transformed) or minus uracil (transformed) plus amino acids to stationary phase and harvested by centrifugation. Cells were then washed twice with sterile dH2 O and resuspended at 5×10^6 cells/ml. 5 μl of each suspension was applied as a small spot to a 2 ml volume of solid media in a 24 well plate. All peptides were suspended in sterile, deionized water and added to an equal volume of SC medium plus the appropriate amino acids and uracil when required. The medium for each assay thus consisted of SC medium plus or minus uracil supplemented with 80 μM of a specific peptide and auxotrophic requirements minus the amino acid components of the added peptide. The plates were incubated at 30° C. for 72 hrs. and then scored for growth.

Test [2] relates to PB1X-9B (pJP9). The test is described as follows: Growth on peptides, mutant transformed with yeast peptide transport gene. Type of test: cell-based, Saccharomyces cerevisiae. The conditions noted are these: for growth on peptide: PBIX-9B (pJP9), 80 μM peptide in SC medium, 30° C., 72 hrs; for growth on peptide (in words): PB1X-9B transformed with pJP9. As for the experimental part: as §1

In test [3] the test system is PB1X-9B (pPTF4). The test is described as follows: Growth on peptides, mutant transformed with plant gene ATPTR2A. Type of test: cell-based, Saccharomyces cerevisiae. Particulars: PBIX-9B (pPTF4); 80 μM peptide in SC medium, 30° C., 72 hrs. As for the experimental part: as §1
A further test has as its system ATPTR2Ap. The test is described as follows: Uptake of L-leucyl-L-[3H]leucine and competition, PB1X-9B[pPTF4]. As for the experimental part:
The kinetics of ATPTR2A-mediated transport of peptides in yeast was evaluated by transforming pPTF4 into the S. cerevisiae peptide transport mutant, PB1X-9B and measuring the uptake of tritiated Leu-Leu dipeptide.
L-leucyl-L [^3 H]leucine trifluoroacetic acid (TFA) was synthesized by standard solution phase techniques (Naider, F. et al., J. Biol. Chem. 249:9-20 (1974)). Uptake of L-leucyl-L-[H]leucine was performed as by Island, M. D. et al (J. Bacteriol. 169:2132-2136 (1987)), with the following modifications. Cells were grown to late log phase (26×10^7 cells/ml) overnight in SC with 2% glucose, 1 mg/ml allantoin plus amino acids to supplement auxotrophic markers. To induce peptide transport. 5-15 ml from this culture was added to 100 ml fresh medium such that the density was 3.0×10^6 cells/ml. This culture was allowed to grow (approx. 2 hrs.) to a density of 6.0×10^6 cells/ml and then harvested by centrifugation. The pelleted cells were washed twice with 10 ml cold dH2 O and suspended in cold 2% glucose to a final concentration of 2×10^8 cells/ml and incubated at 30° C. for 15 min. 500 μl of cells were then added to an equal volume of reaction mixture (30° C.) and incubated at 30°-C. At 20, 40, 60, 90, and 120 sec. intervals, 190 μl portions were removed, filtered over filters (pore size, 0.45 μm; GN-6; Gelman Sciences, Inc., Ann Arbor, Mich.) and washed 2 times with 5 ml cold, sterile dH2 O and once with 5 ml dH2 O at room temperatures. Filters were placed in scintillation vials with 5 ml of Budget-Solve scintillation cocktail (Research Products International Corp., Mount Prospect, Ill.) and counted (liquid scintillation counter; LS-7000; Beckman Instruments, Inc., Fullerton, Calif.). The final concentration of the components in the uptake assay was 1% glucose, 40 mM sodium citrate-potassium phosphate buffer (pH 5.5), and 1.5×105 M L-leucyl-L-[^3 H]leucine (specific activity, 10 mCi/mmole). Uptake is expressed as nanomoles per mg dry weight.

The test system of a further test is A. thaliana seedlings. As to the kind of experiment: Root assay, toxic peptide plus competitor peptide. Type of test: in vivo, Arabidopsis thaliana. As for the experimental part:
Approximately 15 A. thaliana seeds were placed in a row at one end of 10 cm plate containing 20 ml of Arabidopsis growth media (Kranz and Kirchheim 1987). The seeds were incubated 3-5 days in the light with the plate set in an upright position. When the roots were approximately 1-2 cm long, sterile paper filter disks were placed immediately in front of the root tips on the right and left side of the plate 2 cm from the edge of the plate. A line was drawn across the plate using the top of the disks as a guide marking zero growth. 5 μl of toxic amino acid analog, toxic peptide, or toxic peptide plus competitor was added to one disk while H2 O was place on the other disk. The plates were incubated for an additional 3-5 days. The average length of the roots was measured from the line and the results expressed as a percentage of control root growth.

In another test the test system is PB1X-2AΔ (pDTF1). As to the kind of experiment: Growth on peptides, deletion strain transformed with ATPTR2B. On the set-up: key: +: Growth was scored as uniform colony formation; -: negative controls which showed no growth. Particulars: PBIX-2AΔ (pDTF1); 80 μM peptide in SC medium, 30° C., 72 hrs. Type of test: cell-based, Saccharomyces cerevisiae. As for the experimental part: as §1, with “Thus, the peptide transport mutant PB1X-9B and deletion strain PB1X-2AΔ transformed with plasmids pPTF4 (ATPTR2A) or pDTF1 (ATPTR2B) were grown on various peptides to assess the specificity of the plant peptide transporter. In” for “In”

Another test deals with S288C. As to the kind of experiment: Toxic peptide disk assay, wild type. The conditions noted are these: disk with 0.38 μmoles, lawn of 5×10^6 cells, 30° C., 1 to 2 days, mean ± standard error. Type of test: cell-based, Saccharomyces cerevisiae. As for the experimental part: (§2) Since ptr mutants are deficient in peptide transport, they are unable to take up toxic peptides. This inability renders such mutants resistant to the toxic effect of the peptides. In order to determine whether the polynucleotides of the present invention could restore toxic peptide sensitivity to ptr2 mutants, the sensitivity of plasmid-transformed cells was determined. Sensitivity to toxic amino acids and peptides was measured as described by Island, M. D. et al. (J. Bacteriol. 169:2132-2136 (1987)). Briefly, a filter disk containing 0.38 μmoles of the toxic compound was placed on a lawn containing 5×10^6 cells and the plate incubated at 30° C. for 1 to 2 days. Resulting halos were measured across their diameter. The toxic dipeptides Leu-Eth, Ala-Eth, Leu-F-Phe and Oxalysine were synthesized by standard solution phase techniques (Naider, F. et al., J. Biol. Chem. 249:9-20 (1974). The results of this experiment are shown in Table 2 (values are the mean of the diameters of the observed zone of inhibition in millimeters±standard error of the mean of at least two independent experiments).

Test [4] relates to PB1X-9B. The test is described as follows: Toxic peptide disk assay, peptide transport mutant. The conditions noted are these: for diameter of zone of inhibition: disk with 0.38 μmoles, lawn of 5×10^6 cells, 30° C., 1 to 2 days, mean ± standard error. Type of test: cell-based, Saccharomyces cerevisiae. As for the experimental part:
as §2

Test [5] concerns PB1X-9B (pJP9). The test is described as follows: Toxic peptide disk assay, mutant with yeast peptide transport gene. Type of test: cell-based, Saccharomyces cerevisiae. Particulars: disk with 0.38 μmoles, lawn of 5×10^6 cells, 30° C., 1 to 2 days, mean ± standard error. As for the experimental part:
as §2

Test [6] relates to PB1X-9B (pPTF4). As to the kind of experiment: Toxic peptide disk assay, mutant with plant gene ATPTR2A. Type of test: cell-based, Saccharomyces cerevisiae. Particulars: for diameter of zone of inhibition: disk with 0.38 μmoles, lawn of 5×10^6 cells, 30° C., 1 to 2 days, mean ± standard error. As for the experimental part:
as §2

The subject of test [7] is S. cerevisiae strains tested. As to the kind of experiment: Toxic peptide disk assay, statements covering several strains. Type of test: cell-based, Saccharomyces cerevisiae. Particulars: for sensitivity to toxic peptide: all strains tested. Here is the method: as §2
Setting [8] is: PB1X-9B[pPTF4], pH 5.5, dileucine and leucine at 100-fold.

Experimental findings from patent US6080542A, “Plant peptide transport gene” (priority 1997, dated 2000) are described below.

Where a SMILES comes first, the peptide text is derived from it. Where no end group is shown, it is not given here. Eth = ethionine

On to `CC(C)C[C@H](NC(=O)[C@@H](N)Cc1c[nH]cn1)C(=O)O` [His-Leu] (H-His-Leu-OH), for which the growth on peptide entry is “-” in the test on PB1X-9B [1], “+” with PB1X-9B (pJP9) [2] and “+” with PB1X-9B (pPTF4) [3].
`CC(C)C[C@H](NC(=O)[C@@H](N)CC(C)C)C(=O)O` [Leu-Leu, L-leucyl-L-leucine]: the growth on peptide entry is on record as “-” in the test with PB1X-9B [1], “+” with PB1X-9B (pJP9) [2] and “+” with PB1X-9B (pPTF4) [3]. For the same compound, the “competition for uptake of [3H]-dileucine” value in the test on ATPTR2Ap (setting [8]) was “inhibited”.
`CC(C)C[C@H](NC(=O)[C@@H](N)CCCCN)C(=O)O` [Lys-Leu, L-lysyl-L-leucine] (H-Lys-Leu-OH): the growth on peptide result is “-” with PB1X-9B [1], “+” with PB1X-9B (pJP9) [2] and “+” in the test on PB1X-9B (pPTF4) [3].
In the case of `CSCC[C@H](N)C(=O)O` [Met], in the test with A. thaliana seedlings (toxic peptide Ala-Eth), the “reversal of toxicity by competitor (in words)” value is “unable to reverse the inhibition” and the “root growth with toxic peptide plus competitor” value is listed as 0 percentage of control root gro. Moreover, in the test with A. thaliana seedlings (toxic peptide Leu-Eth), the “reversal of toxicity by competitor (in words)” value is reported as “unable to reverse the inhibition” and the “root growth with toxic peptide plus competitor” value was 0 percentage of control root gro.
On to `CC(C)C[C@H](N)C(=O)O` [leucine], for which the figures for the “competition for uptake of [3H]-dileucine” value in the test with ATPTR2Ap (3 h) and in the test with ATPTR2Ap (setting [8]) were “no effect” and “did not reduce uptake”, respectively.
Regarding “Ala-Ala-Leu: tripeptide growth substrate (AAL)”, the growth on peptide result in the test on PB1X-9B [1] is on record as “-”; in the test with PB1X-9B (pJP9) [2], “+”; in the test on PB1X-9B (pPTF4) [3] it was “+”.
With Gly-Leu-Gly-Leu: SEQ ID NO:6 (GLGL), the growth on peptide result in the test on PB1X-9B [1], in the test with PB1X-9B (pJP9) [2] and with PB1X-9B (pPTF4) [3] was “-” each time. Moreover, the “growth on peptide (in words)” value with PB1X-9B (pJP9) [2] was “showed growth on all peptides except”.
“Lys-Ala-Ala: tripeptide growth substrate (KAA)”: the growth on peptide result in the test with PB1X-9B [1] is listed as “-”; with PB1X-9B (pJP9) [2], “+”; with PB1X-9B (pPTF4) [3], “+”; in the test on PB1X-2AΔ (pDTF1), “+”.
“Lys-Leu-Ala-Eth: ethionine-containing peptide of four residues”: the “diameter of zone of inhibition” value with S288C, with PB1X-9B [4], in the test with PB1X-9B (pJP9) [5] and with PB1X-9B (pPTF4) [6] was 0 millimeters each time. Besides, the “sensitivity to toxic peptide” value in test [7] is listed as “None of the strains tested were sensitive”.
“Lys-Leu-Leu-Ala-Eth: ethionine-containing peptide, SEQ ID NO:13 (KLLA-Eth)”: the “diameter of zone of inhibition” value in the test on S288C, in the test with PB1X-9B [4], in the test on PB1X-9B (pJP9) [5] and in the test with PB1X-9B (pPTF4) [6] was 0 millimeters each time. Moreover, the “sensitivity to toxic peptide” value in test [7] is given as “None of the strains tested were sensitive”.
As for “Lys-Leu-Leu-Eth: ethionine-containing peptide of four residues”, the “diameter of zone of inhibition” value with S288C, in the test on PB1X-9B [4], in the test on PB1X-9B (pJP9) [5] and in the test with PB1X-9B (pPTF4) [6] was 0 millimeters throughout. Also, the “sensitivity to toxic peptide” value in test [7] was “None of the strains tested were sensitive”.
Take “Lys-Leu-Leu-Leu-Eth: ethionine-containing peptide, SEQ ID NO:14 (KLLL-Eth)”: the “diameter of zone of inhibition” value with S288C, in the test with PB1X-9B [4], in the test on PB1X-9B (pJP9) [5] and in the test with PB1X-9B (pPTF4) [6] was 0 millimeters throughout. Further, the “sensitivity to toxic peptide” value in [7] is recorded as “None of the strains tested were sensitive”.
Take Thr-Pro-Arg-Lys: SEQ ID NO:7 (TPRK): the growth on peptide result in the test on PB1X-9B [1], in the test on PB1X-9B (pJP9) [2], in the test with PB1X-9B (pPTF4) [3] and in the test on PB1X-2AΔ (pDTF1) was “-” in each case. In addition, the “growth on peptide (in words)” value in the test on PB1X-9B (pJP9) [2] is “showed growth on all peptides except”.
Take “Trp-His-Trp-Leu-Gln-Leu: SEQ ID NO:9 (WHWLQL)”: the growth on peptide result with PB1X-9B [1], with PB1X-9B (pJP9) [2], with PB1X-9B (pPTF4) [3] and in the test on PB1X-2AΔ (pDTF1) was “-” each time. The “growth on peptide (in words)” value with PB1X-9B (pJP9) [2] is on record as “showed growth on all peptides except”.
fluorophenylalanine [F-Phe]: the “diameter of zone of inhibition” value is 25.0 ± 4.0 millimeters in the test on S288C, 14.0 ± 1.0 millimeters with PB1X-9B [4], 20.0 ± 0.0 millimeters in the test with PB1X-9B (pJP9) [5] and 19.5 ± 0.5 millimeters with PB1X-9B (pPTF4) [6]. Moreover, the “sensitivity or resistance to toxic compound” value in the test on PB1X-9B [4] and in the test with PB1X-9B (pPTF4) [6] was “sensitive” each time. The “sensitivity to toxic compound” value in [7] (wild type (S288C) and transformants) is “less sensitive”.
